Test results published in publication PMC7150796 (Viruses, 2020).
“Also recorded” adds a separate entry of the source. Read-outs that look alike come from different tables or passages of the source.

Key:
rZIKV-ZsGreen [1] = assay: microbe, parasite or virus in culture; assay type: cell-based, Zika virus; settings: 24 h; for EC50 / EC90: Zika virus, Vero; for EC50: read-out: Inhibition Efficacy EC50; for EC90: read-out: Inhibition Efficacy EC90; for Inhibition Efficacy EC50 / Inhibition Efficacy EC90: rZIKV-ZsGreen, Vero B4 cells, inhibition of ZsGreen expression, highest concentration 100 µM
[2] = Resazurin cell viability (cell toxicity) assay; settings: African green monkey
[3] = system: wt ZIKV African lineage (MR766, Uganda strain); assay: Plaque inhibition assay, wt ZIKV African lineage; assay type: cell-based, Zika virus; settings: 2.5 µM, Vero B4 cells, 4 days
[4] = system: two wt ZIKV lineages, Asian and African; assay type: cell-based, Zika virus; settings: 2.5 µM
ZIKV [5] = assay: Focus-forming assay, ZIKV; assay type: cell-based, Zika virus; settings: MOI 0.1, Vero B4, 24 hpi
TBEV = assay type: cell-based, tick-borne encephalitis virus; settings: MOI 0.1, Vero B4, 24 hpi
WNV = assay: Focus-forming assay, WNV; assay type: cell-based, West Nile virus
JEV = assay: Focus-forming assay, JEV; assay type: cell-based, Japanese encephalitis virus
YFV = assay type: cell-based, yellow fever virus; settings: MOI 0.1, Vero B4, 48 hpi
DENV2 = assay: Focus-forming assay, DENV2; assay type: cell-based, dengue virus type 2
rZIKV-ZsGreen [6] = assay: Time of drug addition assay
[7] = system: wt ZIKV Asian lineage (BeH819015, Brazil strain); assay: Plaque inhibition assay, wt ZIKV Asian lineage; settings: Vero B4 cells, 4 days
ZIKV [8] = settings: ref 40 (Lei Cai et al.); read-out: EC50 against ZIKV; cited from earlier work
in vitro = settings: African green monkey

SMILES	EC50 (rZIKV-ZsGreen [1]) [µM]	EC90 (rZIKV-ZsGreen [1]) [µM]	viability at 24 h, 25 µM [2] [%]	viability at 24 h, 50 µM [2] [%]	viability at 24 h, 100 µM [2] [%]	viral titer reduction (WNV)	viral titer reduction (JEV)	viral titer reduction (DENV2)	Inhibition Efficacy EC50 (rZIKV-ZsGreen [1])	Inhibition Efficacy EC90 (rZIKV-ZsGreen [1])	other results
O=C(Nc1ccccc1C(=O)Nc1ccccc1C(=O)O)c1ccccc1 [Benzavir-1, 2-{[2-(benzoylamino)benzoyl]amino}-benzoic acid]	3 ± 0.1	3.3 ± 0.1	98.8 ± 3.4	88.3 ± 1.4	88.1 ± 2.1	–	–	–	–	–	–
O=C(Nc1cc(F)c(F)cc1C(=O)Nc1ccccc1C(=O)O)c1ccccc1F [Benzavir-2, 2-[4,5-Difluoro-2-(2-fluorobenzoylamino)-benzoylamino]benzoic acid]	0.8 ± 0.1	1.2 ± 0.3	100 ± 1.8	96.8 ± 0.6	94.3 ± 1.8	2.2 × 10^4 fold	7.5 × 10^3 fold	5.6 × 10^4 fold	–	–	reduction of plaque formation [3]: 94%; CPE in cells infected with progeny virus from treated cells ([4]; day 2 post-progeny virus transfer): minor CPE; plaque formation in cells infected with progeny virus from treated cells ([4]; day 4, crystal violet): only a few visible plaques; viral titer reduction (ZIKV [5]; benzavir-2 2.5 µM): 1.0 × 10^3 fold; viral titer reduction (TBEV; benzavir-2 2.5 µM): 7.5 × 10^3 fold; viral titer reduction (YFV; benzavir-2 2.5 µM): 1.5 × 10^3 fold; inhibitory effect, time of addition (rZIKV-ZsGreen [6]; 10 µM added at 2–4 h post-infection, read 24 h): most pronounced; inhibitory effect, time of addition (rZIKV-ZsGreen [6]; 10 µM, binding and entry steps (0–2 h), read 24 h): less affected; inhibitory effect, time of addition (rZIKV-ZsGreen [6]; 10 µM, later time-points post-infection, read 24 h): less inhibition; inhibitory effect, time of addition (rZIKV-ZsGreen [6]; 10 µM, pre-incubation prior to infection (−2 h), compared to 2–4 h): much lower; reduction of plaque formation ([7]; 2.5 µM, Asian lineage): 88%; plaque formation, dose-dependent ([7]; benzavir-2 from 20 to 0.6 µM): significant reduction of plaque formation at all applied concentrations
CC(C)(C)C(=O)Nc1cc(F)c(F)cc1C(=O)Nc1ccccc1C(=O)O [Compound 17d]	–	–	105.1 ± 0.1	106 ± 4.2	104.9 ± 0.9	–	–	–	no antiviral activity; also recorded: Not achieved	Not achieved	–
O=C(Nc1cc(Cl)ccc1C(=O)Nc1ccccc1C(=O)O)c1ccccc1F [Compound 35f]	6.1 ± 1.4	14.9 ± 0.9	105 ± 5	96.5 ± 3.7	92.1 ± 3.9	–	–	–	–	–	–
NC(=O)c1nc(F)c[nH]c1=O [Favipiravir, reference compound]	–	–	–	–	–	–	–	–	Not achieved	Not achieved	Inhibition Efficacy EC50 (rZIKV-ZsGreen [1]; listed as favipiravir): no antiviral activity; EC50 (ZIKV [8]): 111 ± 13.1 µM; viability at 24 h, 25 µM ([2]; Vero B4 cells): 97.4 ± 0.7%; viability at 24 h, 50 µM ([2]; Vero B4 cells): 95 ± 1.4%; viability at 24 h, 100 µM ([2]; Vero B4 cells): 97.9 ± 2.2%
NC(=O)c1ncn([C@@H]2O[C@H](CO)[C@@H](O)[C@H]2O)n1 [Ribavirin, reference compound]	45.5 ± 13.5	114 ± 18	–	–	–	no significant activity	no significant activity	1.1 × 10^1 fold	–	–	viral titer reduction (ZIKV [5]; ribavirin 50 µM): 1.0 × 10^1 fold; viral titer reduction (TBEV; ribavirin 50 µM): 1.2 × 10^1 fold; viral titer reduction (YFV; ribavirin 50 µM): 0.9 × 10^1 fold; viability at 24 h, 25 µM (in vitro): 96 ± 1%; viability at 24 h, 50 µM (in vitro): 95 ± 2.8%; viability at 24 h, 100 µM (in vitro): 93.5 ± 3.4%; plaque formation, dose-dependent ([7]; ribavirin from 200 to 6.3 µM): only showed inhibition of plaque formation at 200 µM
